According to the supplement of paper PMC10307832:

Legend:
Venetoclax + Trametinib = compound: CC1(C)CCC(CN2CCN(c3ccc(C(=O)NS(=O)(=O)c4ccc(NCC5CCOCC5)c([N+](=O)[O-])c4)c(Oc4cnc5[nH]ccc5c4)c3)CC2)=C(c2ccc(Cl)cc2)C1 [Venetoclax] + CC(=O)Nc1cccc(-n2c(=O)n(C3CC3)c(=O)c3c(Nc4ccc(I)cc4F)n(C)c(=O)c(C)c32)c1 [Trametinib] (partner 0.02 µM); assay: relative viability (nuclei count vs DMSO), 5 days (fraction); higher = more cells survive
Outline: (§1)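 One day after seeding in 1536-well plates, lung cancer cell lines were dosed by pin tool. Dosing was either single-drug or a fixed anchor-drug dose plus five library-drug doses (not always all listed) in √10 steps. After 5 days, nuclei were stained in one fix-and-stain step and counted on 4× images, and relative viability is the nuclei count of treated wells over that of vehicle wells, given as the median of duplicate plates.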

Venetoclax + AZD7762 = compound: CC1(C)CCC(CN2CCN(c3ccc(C(=O)NS(=O)(=O)c4ccc(NCC5CCOCC5)c([N+](=O)[O-])c4)c(Oc4cnc5[nH]ccc5c4)c3)CC2)=C(c2ccc(Cl)cc2)C1 [Venetoclax] + NC(=O)Nc1cc(-c2cccc(F)c2)sc1C(=O)N[C@H]1CCCNC1 [AZD7762] (partner 0.2 µM); assay: as above
Outline: as §1

Row | Cell Line | relative viability (Venetoclax + Trametinib; first compound 0.01 µM) | relative viability (Venetoclax + Trametinib; first compound 0.03162 µM) | relative viability (Venetoclax + Trametinib; first compound 0.1 µM) | relative viability (Venetoclax + Trametinib; first compound 0.3162 µM) | relative viability (Venetoclax + Trametinib; first compound 1 µM) | relative viability (Venetoclax + AZD7762; first compound 0.01 µM) | relative viability (Venetoclax + AZD7762; first compound 0.03162 µM) | relative viability (Venetoclax + AZD7762; first compound 0.1 µM) | relative viability (Venetoclax + AZD7762; first compound 0.3162 µM) | relative viability (Venetoclax + AZD7762; first compound 1 µM)
1 | 201T | 0.675 | 0.699 | 0.713 | 0.682 | 0.696 | 0.572 | 0.634 | 0.612 | 0.644 | 0.639
2 | A-427 | 0.624 | 0.741 | 0.735 | 0.71 | 0.713 | 0.752 | 0.762 | 0.674 | 0.784 | 0.709
3 | ABC-1 |  |  |  |  |  | 0.631 | 0.955 | 0.929 | 0.888 | 0.878
4 | BEN | 1.1 | 1.02 | 0.864 | 1.04 | 1 | 0.771 | 0.746 | 0.611 | 0.836 | 0.637
5 | CAL-12T | 0.24 | 0.385 | 0.357 | 0.379 | 0.278 | 0.584 | 0.644 | 0.638 | 0.636 | 0.435
6 | COR-L23 | 0.528 | 0.588 | 0.502 | 0.575 | 0.547 |  |  |  |  | 
7 | COR-L 105 | 0.333 | 0.499 | 0.386 | 0.496 | 0.413 |  |  |  |  | 
8 | ChaGo-K-1 | 0.769 | 0.951 | 0.882 | 0.939 | 0.815 | 0.884 | 0.854 | 0.849 | 0.888 | 0.85
9 | EKVX | 0.328 | 0.382 | 0.302 | 0.335 | 0.38 | 0.698 | 0.766 | 0.743 | 0.695 | 0.671
10 | EMC-BAC-2 | 0.915 | 0.965 | 0.887 | 0.857 | 0.906 | 1.11 | 1.15 | 1.07 | 1.08 | 1.03
11 | EPLC-272H | 0.287 | 0.284 | 0.238 | 0.259 | 0.263 | 0.192 | 0.188 | 0.229 | 0.318 | 0.225
12 | H3255 | 0.586 | 0.648 | 0.603 | 0.517 | 0.582 | 0.875 | 0.999 | 0.944 | 0.901 | 0.782
13 | HARA | 1.26 | 0.818 |  | 0.647 | 0.676 | 0.299 | 0.214 |  | 0.25 | 0.285
14 | HCC-15 | 0.384 | 0.457 | 0.352 | 0.403 | 0.375 | 1.29 | 1.28 | 1.15 | 1.16 | 1.36
15 | HCC-44 | 1.03 | 1.11 | 1.04 | 1.04 | 0.999 | 1.01 | 0.99 | 1.04 | 0.929 | 0.924
16 | HCC-78 | 0.599 | 0.826 | 0.597 | 0.722 | 0.911 | 0.667 | 0.818 | 0.738 | 0.577 | 0.539
17 | HCC-366 | 0.358 | 0.411 | 0.353 | 0.383 | 0.407 | 0.332 | 0.202 | 0.214 | 0.25 | 0.141
18 | HCC-827 | 0.522 | 0.593 | 0.538 | 0.521 | 0.535 | 0.27 | 0.258 | 0.302 | 0.224 | 0.183

Row | Cell Line | relative viability (Venetoclax + Trametinib; first compound 0.01 µM) | relative viability (Venetoclax + Trametinib; first compound 0.03162 µM) | relative viability (Venetoclax + Trametinib; first compound 0.1 µM) | relative viability (Venetoclax + Trametinib; first compound 0.3162 µM) | relative viability (Venetoclax + Trametinib; first compound 1 µM) | relative viability (Venetoclax + AZD7762; first compound 0.01 µM) | relative viability (Venetoclax + AZD7762; first compound 0.03162 µM) | relative viability (Venetoclax + AZD7762; first compound 0.1 µM) | relative viability (Venetoclax + AZD7762; first compound 0.3162 µM) | relative viability (Venetoclax + AZD7762; first compound 1 µM)
19 | HOP-62 | 0.44 | 0.341 | 0.366 | 0.442 | 0.39 | 0.486 | 0.841 | 0.522 | 0.726 | 0.494
20 | LC-2-ad | 0.927 | 0.84 | 0.898 | 0.874 | 0.845 | 0.992 | 0.856 | 0.809 | 0.845 | 0.802
21 | LCLC-97TM1 | 0.217 | 0.18 | 0.148 | 0.167 | 0.185 | 0.323 | 0.26 | 0.263 | 0.266 | 0.25
22 | LCLC-103H | 0.714 | 0.663 | 0.635 | 0.679 | 0.654 | 0.837 | 0.737 | 0.809 | 0.817 | 0.734
23 | LK-2 | 0.894 | 0.762 | 0.596 | 0.628 | 0.639 | 0.634 | 0.673 | 0.461 | 0.356 | 0.381
24 | LOU-NH91 | 0.784 | 0.81 | 0.768 | 0.807 | 0.707 | 0.766 | 0.8 | 0.723 | 0.777 | 0.63
25 | LU99A | 0.485 | 0.611 | 0.482 | 0.566 | 0.596 | 0.343 | 0.391 | 0.251 | 0.367 | 0.307
26 | NCI-H520 | 0.58 | 0.823 |  | 0.613 | 0.594 |  |  |  |  | 
27 | NCI-H661 | 0.528 | 0.606 | 0.538 | 0.525 | 0.532 |  |  |  |  | 
28 | NCI-H1650 | 0.539 | 0.581 | 0.609 | 0.485 | 0.529 |  |  |  |  | 
29 | NCI-H1703 |  |  |  |  |  | 0.157 | 0.136 | 0.122 | 0.129 | 0.124
30 | NCI-H2009 | 0.346 | 0.351 | 0.292 | 0.266 | 0.264 |  |  |  |  | 
31 | NCI-H2023 | 0.526 | 0.552 | 0.558 | 0.485 | 0.477 |  |  |  |  | 
32 | NCI-H2228 | 0.715 | 0.608 | 0.567 | 0.453 | 0.464 |  |  |  |  | 
33 | SK-LU-1 | 0.585 | 0.512 | 0.522 | 0.507 | 0.587 |  |  |  |  | 
34 | SK-MES-1 | 0.615 | 0.636 | 0.536 | 0.526 | 0.554 |  |  |  |  | 
35 | SW 1573 | 0.571 | 0.612 | 0.486 | 0.603 | 0.545 |  |  |  |  | 
